# Laboratory results from US7956074B2, “Aryl-isoxazolo-4-yl-oxadiazole derivatives” (Hoffman-La Roche Inc., priority 2005, dated 2011).
# Target: T1, GABA A receptor α5β3γ2 (Homo sapiens, UniProt P18507+P31644)
# T1 construct: expressed in transfected cells; host or cells: HEK293 cells, transiently transfected; membranes prepared
# Experiment: [3H]flumazenil competition binding, human GABA A α5β3γ2
# Conditions: competition for [3H]flumazenil (0.5 nM) binding, HEK293 cells expressing human (transiently transfected) α5β3γ2; means of two determinations; read-out: Ki[nM] hα5
# Outline: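 HEK293 membranes expressing GABA-A receptors (human transiently, rat stably transfected) were used for [3H]flumazenil competition in Krebs-tris buffer, pH 7.5. Incubation ran 1 h at 4 °C to equilibrium, followed by filtration and scintillation counting. Ki values are means of two determinations.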
row,Compound,Ki [nM]
1,"COc1cc(N2CCOCC2)ccc1-c1nnc(-c2c(-c3ccccc3)noc2N(C)C)o1 [Example 106, {4-[5-(2-Methoxy-4-morpholin-4-yl-phenyl)-[1,3,4]oxadiazol-2-yl]-3-phenyl-isoxazol-5-yl}-dimethyl-amine]",165
2,"COc1cc(N2CCC(O)CC2)ccc1-c1nnc(-c2c(-c3ccccc3)noc2C)o1 [Example 29, 1-{3-Methoxy-4-[5-(5-methyl-3-phenyl-isoxazol-4-yl)-[1,3,4]oxadiazol-2-yl]-phenyl}-piperidin-4-ol]",6
3,"COc1cc(NS(=O)(=O)c2cccs2)ccc1-c1nnc(-c2c(-c3ccccc3)noc2C)o1 [Example 62, Thiophene-2-sulfonic acid {3-methoxy-4-[5-(5-methyl-3-phenyl-isoxazol-4-yl)-[1,3,4]oxadiazol-2-yl]-phenyl}-amide]",42.8
4,"COc1cc(-n2ccnc2)ccc1-c1nnc(-c2c(-c3ccccc3)noc2C)o1 [Example 33, 2-(4-Imidazol-1-yl-2-methoxy-phenyl)-5-(5-methyl-3-phenyl-isoxazol-4-yl)-[1,3,4]oxadiazole]",7.5
5,"COc1ccc(-c2nnc(-c3c(-c4ccccc4)noc3C)o2)c(OC)n1 [Example 100, 2,6-Dimethoxy-3-[5-(5-methyl-3-phenyl-isoxazol-4-yl)-[1,3,4]oxadiazol-2-yl]-pyridine]",24
6,"Cc1onc(-c2ccccc2)c1-c1nnc(-c2ccsc2)o1 [Example 122, 2-(5-Methyl-3-phenyl-isoxazol-4-yl)-5-thiophen-3-yl-[1,3,4]oxadiazole]",139
7,"COc1cc(NCC2CCCO2)c(F)cc1-c1nnc(-c2c(-c3ccccc3)noc2C)o1 (racemic) [Example 130, rac-{2-Fluoro-5-methoxy-4-[5-(5-methyl-3-phenyl-isoxazol-4-yl)-[1,3,4]oxadiazol-2-yl]-phenyl}-(tetrahydro-furan-2-ylmethyl)-amine]",10.5
8,"COc1cc(NCC2CC2)ccc1-c1nnc(-c2c(-c3ccccc3)noc2C)o1 [Example 19, Cyclopropylmethyl-{3-methoxy-4-[5-(5-methyl-3-phenyl-isoxazol-4-yl)-[1,3,4]oxadiazol-2-yl]-phenyl}-amine]",11.6
9,"N-Cyclopropylmethyl-4-[5-(5-methyl-3-phenyl-isoxazol-4-yl)-[1,3,4]oxadiazol-2-yl]-benzamide [Example 79]",235
10,"COc1cc(N2CCOCC2)ccc1-c1nnc(-c2c(-c3ccccc3Cl)noc2C)o1 [Example 97, 4-(4-{5-[3-(2-Chloro-phenyl)-5-methyl-isoxazol-4-yl]-[1,3,4]oxadiazol-2-yl}-3-methoxy-phenyl)-morpholine]",105
11,"COc1cc([N+](=O)[O-])ccc1-c1nnc(-c2c(-c3ccccc3)noc2C)o1 [Example 11, 2-(2-Methoxy-4-nitro-phenyl)-5-(5-methyl-3-phenyl-isoxazol-4-yl)-[1,3,4]oxadiazole]",171
12,"COc1cc(N(C)C(=O)C2CC2)ccc1-c1nnc(-c2c(-c3ccccc3)noc2C)o1 [Example 17, Cyclopropanecarboxylic acid {3-methoxy-4-[5-(5-methyl-3-phenyl-isoxazol-4-yl)-[1,3,4]oxadiazol-2-yl]-phenyl}-methyl-amide]",48.8
13,"Cc1onc(-c2ccccc2)c1-c1nnc(-c2ccc3[nH]c(=O)[nH]c3c2)o1 [Example 34, 5-[5-(5-Methyl-3-phenyl-isoxazol-4-yl)-[1,3,4]oxadiazol-2-yl]-1,3-dihydro-benzoimidazol-2-one]",7.9
14,"COc1cc(N)ccc1-c1nnc(-c2c(-c3ccccc3)noc2CCC2CC2)o1 [Example 20, 4-{5-[5-(2-Cyclopropyl-ethyl)-3-phenyl-isoxazol-4-yl]-[1,3,4]oxadiazol-2-yl}-3-methoxy-phenylamine]",20.5
15,"Cc1onc(-c2ccccc2)c1-c1nnc(-c2ccc(N3CCCCC3)cc2)o1 [Example 47, 1-{4-[5-(5-Methyl-3-phenyl-isoxazol-4-yl)-[1,3,4]oxadiazol-2-yl]-phenyl}-piperidine]",46.9
16,"CCc1onc(-c2ccccc2)c1-c1nnc(-c2ccc(F)cc2OC)o1 [Example 60, 2-(5-Ethyl-3-phenyl-isoxazol-4-yl)-5-(4-fluoro-2-methoxy-phenyl)-[1,3,4]oxadiazole]",96
17,"Cc1onc(-c2ccccc2)c1-c1nnc(-c2ccc(N3CCC(F)(F)CC3)cc2)o1 [Example 112, 4,4-Difluoro-1-{4-[5-(5-methyl-3-phenyl-isoxazol-4-yl)-[1,3,4]oxadiazol-2-yl]-phenyl}-piperidine]",31.2
18,"COc1ccccc1-c1nnc(-c2c(-c3ccccc3)noc2C)o1 [Example 4, 2-(2-Methoxy-phenyl)-5-(5-methyl-3-phenyl-isoxazol-4-yl)-[1,3,4]oxadiazole]",16.4
19,"Cc1onc(-c2ccccc2)c1-c1nnc(-c2ccccc2)o1 [Example 1, 2-(5-Methyl-3-phenyl-isoxazol-4-yl)-5-phenyl-[1,3,4]oxadiazole]",400
20,"Cc1onc(-c2ccccc2)c1-c1nnc(-c2ccc(N3CCOCC3)nc2)o1 [Example 136, 4-{5-[5-(5-Methyl-3-phenyl-isoxazol-4-yl)-[1,3,4]oxadiazol-2-yl]-pyridin-2-yl}-morpholine]",15.3
21,"COc1cc(N2CCSCC2)ccc1-c1nnc(-c2c(-c3ccccc3)noc2C)o1 [Example 26, 4-{3-Methoxy-4-[5-(5-methyl-3-phenyl-isoxazol-4-yl)-[1,3,4]oxadiazol-2-yl]-phenyl}-thiomorpholine]",10.2
22,"Cc1onc(-c2ccccc2)c1-c1nnc(-c2cccs2)o1 [Example 121, 2-(5-Methyl-3-phenyl-isoxazol-4-yl)-5-thiophen-2-yl-[1,3,4]oxadiazole]",115
23,"COc1cc(N2CCOCC2)ccc1-c1nnc(-c2c(-c3ccc(Cl)cc3)noc2C)o1 [Example 109, 4-(4-{5-[3-(4-Chloro-phenyl)-5-methyl-isoxazol-4-yl]-[1,3,4]oxadiazol-2-yl}-3-methoxy-phenyl)-morpholine]",2.2
24,"COc1cc(N2CCS(=O)(=O)CC2)c(F)cc1-c1nnc(-c2c(-c3ccccc3)noc2C)o1 [Example 117, 4-{2-Fluoro-5-methoxy-4-[5-(5-methyl-3-phenyl-isoxazol-4-yl)-[1,3,4]oxadiazol-2-yl]-phenyl}-thiomorpholine 1,1-dioxide]",2
25,"COc1cc(F)ccc1-c1nnc(-c2c(-c3ccccc3)noc2C2CC2)o1 [Example 73, 2-(5-Cyclopropyl-3-phenyl-isoxazol-4-yl)-5-(4-fluoro-2-methoxy-phenyl)-[1,3,4]oxadiazole]",11.9
26,"COc1cc(NCCN2CCCC2=O)c(F)cc1-c1nnc(-c2c(-c3ccccc3)noc2C)o1 [Example 128, 1-(2-{2-Fluoro-5-methoxy-4-[5-(5-methyl-3-phenyl-isoxazol-4-yl)-[1,3,4]oxadiazol-2-yl]-phenylamino}-ethyl)-pyrrolidin-2-one]",4.2
27,"COc1cc(NCCN2CCCC2)c(F)cc1-c1nnc(-c2c(-c3ccccc3)noc2C)o1 [Example 132, {2-Fluoro-5-methoxy-4-[5-(5-methyl-3-phenyl-isoxazol-4-yl)-[1,3,4]oxadiazol-2-yl]-phenyl}-(2-pyrrolidin-1-yl-ethyl)-amine]",8.6
28,"COc1cc(N2CCOCC2)ccc1-c1nnc(-c2c(-c3ccccc3)noc2C)o1 [Example 68, 4-{3-Methoxy-4-[5-(5-methyl-3-phenyl-isoxazol-4-yl)-[1,3,4]oxadiazol-2-yl]-phenyl}-morpholine]",4.2
